Results taken from patent publication US9877980B2, “Method and composition for treatment or prevention of type 2 diabetes and hyperlipidemia” (Chun-Ching Shih, priority 2016, dated 2018).
Marks after values point to notes of the source that are not given here.

What was measured:
Type in all cases: in vivo
[1] = test system: C57BL/6J mice on high-fat diet (HFD); experiment: Blood parameters (glucose, insulin, TG, FFA, TC, leptin, adiponectin) in HFD mice; conditions: for Blood parameters Adiponectin / Blood parameters FFA / Blood parameters Leptin / Blood parameters TC / blood level of glucose / blood level of insulin: 4 weeks
Method: (§1) The following experiment was performed and approved by the guidelines of the Institutional Animal Care and Use Committee of Central Taiwan University of Science and Technology. The 4-week old male C57BL/6J mice (total amount n=63) were purchased from the National Laboratory Animal Breeding and Research Center (Taipei, Taiwan). After acclimatization for one week, all of the mice were divided randomly into the control (CON) group and the high-fat diet (HFD) group. […] After HFD exposure for 8 weeks, the HFD group was further randomly subdivided into 6 groups (n=9 per group) to receive different treatments by oral gavage once daily for four weeks and on HFD. […] The HF+B1, HF+B2, and […] are collectively termed BB-treated HFD groups in the following examples. The CON mice were administered vehicle. After dosing for 4 weeks, the mice were given no food at night and sacrificed after 12 h of fasting on the next day. All of the individual tissues were collected and weighed, and portions were instantly frozen using liquid nitrogen and kept at −80° C. for subsequent target gene analysis. Blood samples (0.8 mL) were collected for analysis of blood parameters.
A portion of the blood samples obtained from the retro-orbital sinus of fasted mice were immediately used to measure blood glucose levels using Sidekick glucose analyzer (YSI 1500, YSI Incorporated, Yellow Springs, USA) according to the glucose oxidase method. Heparin (30 units/mL, Sigma) was added into other portions of the blood samples. […] Concentrations of plasma triglycerides (TG), total cholesterol (TC), and free fatty acids (FFA) were determined using commercial assay kits according to the manufacturer's instructions (Triglycerides-E test, Cholesterol-E test, and FFA-C test, Wako Pure Chemical, Osaka, Japan). Plasma insulin, leptin, and adiponectin levels were assessed using commercial assay kits according to the manufacturer's instructions (mouse insulin ELISA kit, Mercodia, Uppsala, Sweden; mouse leptin ELISA kit, Morinaga, Yokohama, Japan; Mouse Adiponectin ELISA kit, Crystal Chem International, Downers Grove, Ill., USA).

adiponectin = experiment: Semi-quantitative RT-PCR of liver mRNA: adiponectin; conditions: HFD mice; 40 mg/kg/day oral gavage, 4 weeks; vs HF group
Method: as §1, with “The CON mice were administered vehicle. After dosing for 4 weeks, the mice were given no food at night and sacrificed after 12 h of fasting on the next day. All of the individual tissues were collected and weighed, and portions were instantly frozen using liquid nitrogen and kept at −80° C. for subsequent target gene analysis. Blood samples (0.8 mL) were collected for analysis of blood parameters.” left out
Total RNA from liver tissue of mice was isolated with a Trizol Reagent (Molecular Research Center, Inc., Cincinnati, Ohio, USA) according to the manufacturer's instructions. The integrity of the extracted total RNA was examined by 2% agarose gel electrophoresis, and the RNA concentration was determined by the ultraviolet (UV) light absorbency at 260 nm and 280 nm (Spectrophotometer U-2800A, Hitachi). […]
(§2) Levels of mRNA of genes of interest were quantified by semi-quantitative reverse transcription polymerase chain reaction (RT-PCR). […] PCR products were analyzed by 2% agarose gels and stained with ethidium bromide.

[2] = test system: epididymal adipocyte of HFD mice; experiment: Histology of epididymal white adipose tissue (adipocyte hypertrophy); conditions: 4 weeks, three measurements
Method: The following experiment was performed and approved by the guidelines of the Institutional Animal Care and Use Committee of Central Taiwan University of Science and Technology. The 4-week old male C57BL/6J mice (total amount n=63) were purchased from the National Laboratory Animal Breeding and Research Center (Taipei, Taiwan). After acclimatization for one week, all of the mice were divided randomly into the control (CON) group and the high-fat diet (HFD) group. For the following 12 weeks, the CON group (n=9) was kept on a low-fat diet (Diet 12450B, Research Diets, Inc., New Brunswick, N.J., USA), while the HFD group (n=54) was exposed to a high-fat diet (Diet 12451, Research Diets, New Brunswick, N.J., USA). The low-fat diet was composed of protein 20%, carbohydrate 70% and fat 10%, whereas the high-fat diet was composed of protein 20%, carbohydrate 35%, and fat 45% (of total energy, % kcal). After HFD exposure for 8 weeks, the HFD group was further randomly subdivided into 6 groups (n=9 per group) to receive different treatments by oral gavage once daily for four weeks and on HFD. […] The HF+B1, HF+B2, and […] are collectively termed BB-treated HFD groups in the following examples. The CON mice were administered vehicle. After dosing for 4 weeks, the mice were given no food at night and sacrificed after 12 h of fasting on the next day. All of the individual tissues were collected and weighed, and portions were instantly frozen using liquid nitrogen and kept at −80° C. for subsequent target gene analysis. Blood samples (0.8 mL) were collected for analysis of blood parameters.
Small pieces of epididymal white adipose tissue and liver tissue were fixed with formalin (200 g/kg) neutral buffered solution and embedded in paraffin. Sections of 8 μm […] were cut and stained with hematoxylin and eosin. For microscopic examination, a microscope (Leica, DM2500) was used, and the images were taken using a Leica Digital Camera (DFC-425-C).
Adipocyte hypertrophy, the pathological enlargement of adipocytes, is often found in subjects with type 2 diabetes and hyperlipidemia. To verify the therapeutic effect of the compound of formula I on adipocyte hypertrophy, morphology of the EWAT for the CON group and the BB-treated HFD groups was examined. Micrographs of the EWAT sections for each group were analyzed to determine the mean area of an epididymal adipocyte using the software ImageJ.

DGAT2 = experiment: Semi-quantitative RT-PCR of liver mRNA: DGAT2; conditions: HFD mice, 4 weeks, vs HF group
Method: as §1
Total RNA from liver tissue of mice was isolated with a Trizol Reagent (Molecular Research Center, Inc., Cincinnati, Ohio, USA) according to the manufacturer's instructions. The integrity of the extracted total RNA was examined by 2% agarose gel electrophoresis, and the RNA concentration was determined by the ultraviolet (UV) light absorbency at 260 nm and 280 nm (Spectrophotometer U-2800A, Hitachi). The quality of the RNA was confirmed by ethidium bromide staining of 18S and 28S ribosomal RNA after electrophoresis on 2% agarose gel containing 6% formaldehyde.
as §2

[3] = 10 mg/kg/day oral gavage, vs HF group
[4] = 20 mg/kg/day oral gavage, vs HF group
[5] = 40 mg/kg/day oral gavage, vs HF group

OCC1O[C@@H](O[C@@H]2Cc3c(O)cc(O)cc3O[C@@H]2c2ccc(O)c(O)c2)C(O)C(O)[C@@H]1O (single isomer, unassigned; (-)) [compound of formula I, (−)-epicatechin-3-O-β-D-allopyranoside]
Blood parameters Adiponectin ([1]; 10 mg/kg/day oral gavage): 2.895 ± 0.010^f μg/mL
Blood parameters FFA ([1]; 10 mg/kg/day oral gavage): 1.11 ± 0.13^d mEq/L
Blood parameters Leptin ([1]; 10 mg/kg/day oral gavage): 1.662 ± 0.009^f ng/mL
Blood parameters TC ([1]; 10 mg/kg/day oral gavage): 153.5 ± 7.7 mg/dL
blood level of glucose [1, 3]: markedly lowered
blood level of insulin [1, 3]: markedly lowered
Blood parameters Adiponectin ([1]; 20 mg/kg/day oral gavage): 3.277 ± 0.052^f μg/mL
Blood parameters FFA ([1]; 20 mg/kg/day oral gavage): 0.95 ± 0.04^f mEq/L
Blood parameters Leptin ([1]; 20 mg/kg/day oral gavage): 1.372 ± 0.029^f ng/mL
Blood parameters TC ([1]; 20 mg/kg/day oral gavage): 144.1 ± 4.0 mg/dL
blood level of glucose [1, 4]: markedly lowered
blood level of insulin [1, 4]: markedly lowered
Blood parameters Adiponectin ([1]; 40 mg/kg/day oral gavage): 3.628 ± 0.034^f μg/mL
Blood parameters FFA ([1]; 40 mg/kg/day oral gavage): 0.86 ± 0.09^f mEq/L
Blood parameters Leptin ([1]; 40 mg/kg/day oral gavage): 1.321 ± 0.008^f ng/mL
Blood parameters TC ([1]; 40 mg/kg/day oral gavage): 142.9 ± 6.6 mg/dL
blood level of glucose [1, 5]: markedly lowered
blood level of insulin [1, 5]: markedly lowered
circulating TG levels ([1]; oral gavage 4 weeks (formula I 10, 20, 40; Rosi 10; Feno 250 mg/kg/day), vs HF group): decreased
liver adiponectin mRNA level (adiponectin): enhanced
mean area of an epididymal adipocyte ([2]; 10 mg/kg/day oral gavage): 6882.8±102.2 μm^2
mean area of an epididymal adipocyte ([2]; 20 mg/kg/day oral gavage): 6475.5±102.6 μm^2
mean area of an epididymal adipocyte ([2]; 40 mg/kg/day oral gavage): 6192.7±100.7 μm^2
liver mRNA level of DGAT2 (DGAT2; 10 mg/kg/day oral gavage): significantly reduced
liver mRNA level of DGAT2 (DGAT2; 20 mg/kg/day oral gavage): significantly reduced
liver mRNA level of DGAT2 (DGAT2; 40 mg/kg/day oral gavage): significantly reduced
